From patent US8247211B2, “Glycopeptide antibiotics” (American Cyanamid Company, priority 2001, dated 2012)
In brackets after ≈: the same amount, converted by molar mass.

Experiments:
Escherichia coli = test: In vitro antibacterial evaluation: minimum inhibitory concentration (MIC), broth dilution method; type: cell-based
Outline: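 MIC read as lowest drug level preventing visible growth. Organisms at 5×10^5 CFU/mL were exposed to a 64-0.06 μg/mL dilution series in Muller-Hinton II […] following NCCLS broth dilution standard M7-A2.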

Streptococcus sp. = test: as above; type: cell-based
Outline: (§1)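 Broth dilution per NCCLS M7-A2 in Muller-Hinton II […], inoculum 5×10^5 CFU/mL, antibiotic tested over 64-0.06 μg/mL. MIC is taken as the lowest concentration that inhibits growth. Panel includes recent clinical isolates resistant to methicillin, penicillin and/or vancomycin.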

Enterococcus sp. = test: as above; type: cell-based
Outline: as §1

Staphylococcus sp. = test: as above; type: cell-based; settings: broth dilution, 18 hours at 35° C.
Outline: as §1

[1] = system: Staphylococcus aureus-SMITH (GC 4543); test: Acute lethal infection in mice (ED50); type: in vivo; settings: female CD-1 mice, intraperitoneal challenge, intravenous dose 30 min. after infection, 7 day survival ratios
Outline: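 Lethal systemic infection model: female CD-1 mice, 20 ± 1-2 g, intraperitoneal challenge. Single intravenous treatment 30 min after infection; 7-day survival, pooled from 3 tests, gives ED50.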

[2] = broth dilution, inoculum 5×10^5 CFU/mL, 18 hours at 35° C.

CC(c1ccccc1)C1NC(=O)CNC(=O)C(CO)NC(=O)C(C(O)C2CNC(=N)N2C2OC(CO)C(O)C(O)C2O)NC(=O)C(C(O)C2CNC(=N)N2)NC(=O)C(Cc2ccc(OC3OC(CO)C(OC4OC5COC(c6cc7c(cc6Cl)OCO7)OC5C(O)C4O)C(O)C3O)cc2)NC1=O (stereo not drawn) [Example 158, Cyclo[glycyl-β-methylphenylalanyl-O-[4-O-[4,6-O-[(6-chloro-1,3-benzodioxol-5-yl)-methylene]hexopyranosyl]hexopyranosyl]tyrosyl-3-(2-iminoimidazolidin-4-yl)seryl-3-(3-hexopyranosyl-2-iminoimidazolidin-4-yl)serylseryl]]
MIC Escherichia coli (ATCC 25922) (Escherichia coli; strain ATCC 25922): 64 µg/mL (≈ 43.8 µM)
MIC Escherichia coli (GC 4559) (Escherichia coli; strain GC 4559): 64 µg/mL (≈ 43.8 µM)
MIC Escherichi coli (GC 4560) (Escherichia coli; strain GC 4560): 1 µg/mL (≈ 0.684 µM)
MIC Streptococcus pneumoniae (ATCC 6301) (Streptococcus sp.; strain ATCC 6301): 0.12 µg/mL (≈ 0.0821 µM)
MIC Streptococcus pneumoniae (GC 1894) (Streptococcus sp.; strain GC 1894): <0.06 µg/mL
MIC Streptococcus pyogenes (GC 4563) (Streptococcus sp.; strain GC 4563): 0.25 µg/mL (≈ 0.171 µM)
MIC Streptococcus agalactiae (GC 4564) (Streptococcus sp.; strain GC 4564): 0.25 µg/mL (≈ 0.171 µM)
MIC Streptococcus pneumoniae (GC 4565) (Streptococcus sp.; strain GC 4565): <0.06 µg/mL
MIC Enterococcus avium (GC 4558) (Enterococcus sp.; [2]): 4 µg/mL (≈ 2.74 µM)
MIC Enterococcus faecalis (ATCC 29212) (Enterococcus sp.; [2]): 4 µg/mL (≈ 2.74 µM)
MIC Enterococcus faecalis (GC 4552) (Enterococcus sp.; [2]): 8 µg/mL (≈ 5.47 µM)
MIC Enterococcus faecalis (GC 4553) (Enterococcus sp.; [2]): 4 µg/mL (≈ 2.74 µM)
MIC Enterococcus faecalis (GC 4554) (Enterococcus sp.; [2]): 4 µg/mL (≈ 2.74 µM)
MIC Enterococcus faecalis (GC 6189) (Enterococcus sp.; [2]): 4 µg/mL (≈ 2.74 µM)
MIC Enterococcus faecium (GC 2243) (Enterococcus sp.; [2]): 4 µg/mL (≈ 2.74 µM)
MIC Enterococcus faecium (GC 4556) (Enterococcus sp.; [2]): 8 µg/mL (≈ 5.47 µM)
MIC Enterococcus faecium (GC 4557) (Enterococcus sp.; [2]): 2 µg/mL (≈ 1.37 µM)
MIC Enterococcus faecalis (ATCC 29212) (Enterococcus sp.; strain ATCC 29212): 4 µg/mL (≈ 2.74 µM)
MIC Enterococcus faecalis (GC 2242) (Enterococcus sp.; strain GC 2242): 4 µg/mL (≈ 2.74 µM)
MIC Enterococcus faecium (GC 2243) (Enterococcus sp.; strain GC 2243): 4 µg/mL (≈ 2.74 µM)
MIC Enterococcus faecalis (GC 2691) (Enterococcus sp.; strain GC 2691): 4 µg/mL (≈ 2.74 µM)
MIC Enterococcus faecalis (GC 3059) (Enterococcus sp.; strain GC 3059): 4 µg/mL (≈ 2.74 µM)
MIC Enterococcus faecalis (GC 4552) (Enterococcus sp.; strain GC 4552): 8 µg/mL (≈ 5.47 µM)
MIC Enterococcus faecalis (GC 4553) (Enterococcus sp.; strain GC 4553): 4 µg/mL (≈ 2.74 µM)
MIC Enterococcus faecalis (GC 4554) (Enterococcus sp.; strain GC 4554): 4 µg/mL (≈ 2.74 µM)
MIC Enterococcus faecium (GC 4556) (Enterococcus sp.; strain GC 4556): 8 µg/mL (≈ 5.47 µM)
MIC Enterococcus faecium (GC 4557) (Enterococcus sp.; strain GC 4557): 2 µg/mL (≈ 1.37 µM)
MIC Enterococcus avium (GC 4558) (Enterococcus sp.; strain GC 4558): 4 µg/mL (≈ 2.74 µM)
MIC Enterococcus faecalis (GC 6189) (Enterococcus sp.; strain GC 6189): 4 µg/mL (≈ 2.74 µM)
MIC Coagulase Negative Staphylococcus (GC 4547) (Staphylococcus sp.; 5×10^5 CFU/mL): 2 µg/mL (≈ 1.37 µM)
MIC Coagulase Negative Staphylococcus (GC 4548) (Staphylococcus sp.; 5×10^5 CFU/mL): 1 µg/mL (≈ 0.684 µM)
MIC Coagulase Negative Staphylococcus (GC 4549) (Staphylococcus sp.; 5×10^5 CFU/mL): 1 µg/mL (≈ 0.684 µM)
MIC Coagulase Negative Staphylococcus (GC 4551) (Staphylococcus sp.; 5×10^5 CFU/mL): 2 µg/mL (≈ 1.37 µM)
MIC Coagulase Negative Staphylococcus (GC 6257) (Staphylococcus sp.; 5×10^5 CFU/mL): 1 µg/mL (≈ 0.684 µM)
MIC Staphylococcus aureus (ATCC 29213) (Staphylococcus sp.; 5×10^5 CFU/mL): 2 µg/mL (≈ 1.37 µM)
MIC Staphylococcus aureus (GC 1131) (Staphylococcus sp.; 5×10^5 CFU/mL): 2 µg/mL (≈ 1.37 µM)
MIC Staphylococcus aureus (GC 3051) (Staphylococcus sp.; 5×10^5 CFU/mL): 1 µg/mL (≈ 0.684 µM)
MIC Staphylococcus aureus (GC 3053) (Staphylococcus sp.; 5×10^5 CFU/mL): 2 µg/mL (≈ 1.37 µM)
MIC Staphylococcus aureus (GC 4541) (Staphylococcus sp.; 5×10^5 CFU/mL): 1 µg/mL (≈ 0.684 µM)
MIC Staphylococcus aureus (GC 4542) (Staphylococcus sp.; 5×10^5 CFU/mL): 1 µg/mL (≈ 0.684 µM)
MIC Staphylococcus aureus (GC 4544) (Staphylococcus sp.; 5×10^5 CFU/mL): 2 µg/mL (≈ 1.37 µM)
MIC Staphylococcus aureus (GC 4545) (Staphylococcus sp.; 5×10^5 CFU/mL): 2 µg/mL (≈ 1.37 µM)
MIC Staphylococcus aureus-SMITH (GC 4543) (Staphylococcus sp.; 5×10^5 CFU/mL): 2 µg/mL (≈ 1.37 µM)
MIC Staphylococcus haemolyticus (GC 4546) (Staphylococcus sp.; 5×10^5 CFU/mL): 0.5 µg/mL (≈ 0.342 µM)
MIC Staphylococcus aureus (ATCC 29213) (Staphylococcus sp.; strain ATCC 29213): 2 µg/mL (≈ 1.37 µM)
MIC Staphylococcus aureus (GC 1131) (Staphylococcus sp.; strain GC 1131): 2 µg/mL (≈ 1.37 µM)
MIC Staphylococcus aureus (GC 3051) (Staphylococcus sp.; strain GC 3051): 1 µg/mL (≈ 0.684 µM)
MIC Staphylococcus aureus (GC 3053) (Staphylococcus sp.; strain GC 3053): 2 µg/mL (≈ 1.37 µM)
MIC Staphylococcus aureus (GC 4541) (Staphylococcus sp.; strain GC 4541): 1 µg/mL (≈ 0.684 µM)
MIC Staphylococcus aureus (GC 4542) (Staphylococcus sp.; strain GC 4542): 1 µg/mL (≈ 0.684 µM)
MIC Staphylococcus aureus-SMITH (GC 4543) (Staphylococcus sp.; strain GC 4543): 2 µg/mL (≈ 1.37 µM)
MIC Staphylococcus aureus (GC 4544) (Staphylococcus sp.; strain GC 4544): 2 µg/mL (≈ 1.37 µM)
MIC Staphylococcus aureus (GC 4545) (Staphylococcus sp.; strain GC 4545): 2 µg/mL (≈ 1.37 µM)
MIC Staphylococcus haemolyticus (GC 4546) (Staphylococcus sp.; strain GC 4546): 0.5 µg/mL (≈ 0.342 µM)
MIC Coagulase Negative Staphylococcus (GC 4547) (Staphylococcus sp.; strain GC 4547): 2 µg/mL (≈ 1.37 µM)
MIC Coagulase Negative Staphylococcus (GC 4548) (Staphylococcus sp.; strain GC 4548): 1 µg/mL (≈ 0.684 µM)
MIC Coagulase Negative Staphylococcus (GC 4549) (Staphylococcus sp.; strain GC 4549): 1 µg/mL (≈ 0.684 µM)
MIC Coagulase Negative Staphylococcus (GC 4551) (Staphylococcus sp.; strain GC 4551): 2 µg/mL (≈ 1.37 µM)
MIC Coagulase Negative Staphylococcus (GC 6257) (Staphylococcus sp.; strain GC 6257): 1 µg/mL (≈ 0.684 µM)
median effective dose (ED50), Staphylococcus aureus-SMITH (GC 4543) [1]: 0.14 mg/kg
